Measured values reported in US9708368B2, “Linear peptide antibiotics” (priority 2012, dated 2017).
Converted amounts (≈) assume the structure as drawn. Square brackets hold non-standard residues; d marks the D form. Peptide text beside a SMILES is read from it. * marks the point of attachment. boroAla((+)-pinanediol) = C[C@H](N*)B1O[C@@H]2C[C@@H]3C[C@@H](C3(C)C)[C@]2(C)O1; Biphenylcarbonyl(4'-Bu) = CCCCc1ccc(-c2ccc(C(=O)*)cc2)cc1; X11 = CC[C@H](N*)B1OC2C[C@@H]3C[C@@H](C3(C)C)[C@]2(C)O1; X1 = C[C@H](N*)B1OC2C[C@@H]3C[C@@H](C3(C)C)[C@]2(C)O1; Benzoyl(4-(4-Cl-Ph)) = O=C(c1ccc(-c2ccc(Cl)cc2)cc1)*; X13 = CCCCN1CCC(c2ccc(C(=O)*)cc2)CC1; NMeY = CN[C@@H](Cc1ccc(O)cc1)C(=O)O; NMeE = CN[C@@H](CCC(=O)O)C(=O)O; boroAla = C[C@H](N*)B(O)O; Dab = NCC[C@H](N)C(=O)O; Abu = CC[C@H](N)C(=O)O; Dap = NC[C@H](N)C(=O)O; βAla = NCCC(=O)O

What was measured:
[1] = system: Escherichia coli strain MC4100 IMP-4213, which harbors an LptD mutation; conditions: Method B; E. coli MC4100 IMP-4213 (LptD mutation); 35° C., 22 hours
How it was run: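 Two-fold serial dilutions of compound inoculated at final OD600 0.0005, incubated static at 35 °C for 22 h, and growth read visually.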

[2] = system: methicillin resistant Staphylococcus aureus (MRSA) strain USA300 (NRS384); conditions: Method B, 35° C., 22 hours
Experimental: In vitro antimicrobial activity of each compound was determined by measuring minimal inhibitor concentrations (MICs) using the broth micro-dilution technique as approved by the Clinical and Laboratory Standards Institute (CLSI). […] Bacterial inocula were prepared by scraping cells into 1 mL of testing media (cation adjusted Mueller Hinton Broth supplemented with 0.002% v/v Tween-80) and diluting to a final OD600 nm of 0.01.
Test compounds were prepared in DMSO at a concentration of 10 mg/ml. […] Bacterial inocula were added to the two fold serial dilutions of test compounds to a final density of OD OD600 nm of 0.0005 and incubated stationarily at 35° C. for 22 hours, after which the plates were examined visually.

[3] = target: S. aureus SPase (Staphylococcus aureus, UniProt P0A070); experiment: biochemical
Chain of S. aureus SPase (P0A070 whole entry): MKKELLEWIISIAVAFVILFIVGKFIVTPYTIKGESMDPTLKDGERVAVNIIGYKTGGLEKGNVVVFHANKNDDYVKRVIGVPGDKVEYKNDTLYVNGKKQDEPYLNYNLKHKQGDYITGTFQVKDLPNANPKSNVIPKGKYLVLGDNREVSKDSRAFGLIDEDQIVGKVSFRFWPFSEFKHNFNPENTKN

[4] = target: E. coli SPase (Escherichia coli, UniProt P00803); experiment: Biochemical SPase activity assay (fluorogenic peptide substrate), E. coli enzyme
Chain of E. coli SPase (P00803 whole entry): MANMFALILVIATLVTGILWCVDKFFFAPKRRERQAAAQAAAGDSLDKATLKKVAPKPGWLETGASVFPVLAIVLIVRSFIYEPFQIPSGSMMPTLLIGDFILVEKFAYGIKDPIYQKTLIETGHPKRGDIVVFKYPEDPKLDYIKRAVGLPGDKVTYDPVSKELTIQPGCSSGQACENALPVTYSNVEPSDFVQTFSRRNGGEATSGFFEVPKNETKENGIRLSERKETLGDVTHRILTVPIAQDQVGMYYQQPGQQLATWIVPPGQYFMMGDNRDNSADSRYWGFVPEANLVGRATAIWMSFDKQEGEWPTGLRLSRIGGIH

Row | Structure (SMILES) | MIC (μg/mL) E. coli [1] [µg/mL] | MIC (μg/mL) S. aureus [2] [µg/mL] | IC50 [3] [nM] | IC50 [4] [nM]
1 | CCCCc1ccc(-c2ccc(C(=O)N[C@H](CO)C(=O)N[C@H](C)C(=O)NCC(=O)N(C)[C@@H](CCC(=O)O)C(=O)N[C@@H](C)C(=O)N[C@@H](CC(N)=O)C(=O)N[C@@H](C)B3OC4C[C@@H]5C[C@@H](C5(C)C)[C@]4(C)O3)cc2)cc1 (some centres unmarked) [Compound 229] ({Biphenylcarbonyl(4'-Bu)}-[dS][dA]G[NMeE]AN-X1) | 32 (≈ 31.9 µM) | 64 (≈ 63.8 µM) | 220 | 290
2 | CCCCc1ccc(-c2ccc(C(=O)N[C@H](CO)C(=O)N[C@H](C)C(=O)NCC(=O)N(C)[C@@H](Cc3ccc(O)cc3)C(=O)N[C@@H](C)C(=O)N[C@@H](CC(N)=O)C(=O)N[C@@H](C)B3OC4C[C@@H]5C[C@@H](C5(C)C)[C@]4(C)O3)cc2)cc1 (some centres unmarked) [Compound 227] ({Biphenylcarbonyl(4'-Bu)}-[dS][dA]G[NMeY]AN-X1) | 13 (≈ 12.5 µM) | 8 (≈ 7.71 µM) | 850 | 550
3 | CCCCc1ccc(-c2ccc(C(=O)NCCC(=O)N[C@@H](CCCCN)C(=O)N3CCC[C@H]3C(=O)N[C@@H](C)C(=O)N[C@@H](CCCCN)C(=O)N[C@@H](C)B(O)O)cc2)cc1 [Compound 221] ({Biphenylcarbonyl(4'-Bu)-βAla}-KPAK-boroAla) | 8 (≈ 9.75 µM) | 1 (≈ 1.22 µM) | 130 | 62
4 | CCCCc1ccc(-c2cnc(C(=O)N[C@@H](CCN)C(=O)N[C@H](C(=O)N[C@@H](C)C(=O)N[C@@H](CCCCN)C(=O)N[C@@H](C)B3OC4C[C@@H]5C[C@@H](C5(C)C)[C@]4(C)O3)[C@@H](C)O)nc2)cc1 (some centres unmarked) [Compound 242] | 11 (≈ 12.8 µM) | 1.4 (≈ 1.62 µM) | 54 | 21
5 | CCCCc1ccc(-c2ccc(C(=O)N[C@@H](CCCCN)C(=O)N3CCC[C@H]3C(=O)N[C@@H](C)C(=O)N[C@@H](CC(N)=O)C(=O)N[C@@H](C)B3O[C@@H]4C[C@@H]5C[C@@H](C5(C)C)[C@]4(C)O3)cc2)cc1 [Compound 133] ({Biphenylcarbonyl(4'-Bu)}-KPAN-{boroAla((+)-pinanediol)}) | 0.79 (≈ 0.908 µM) | 1.4 (≈ 1.61 µM) | 170 | 15
6 | CCCCN1CCC(c2ccc(C(=O)N[C@@H](CCN)C(=O)N[C@H](C(=O)N[C@@H](C)C(=O)N[C@@H](CCCCN)C(=O)N[C@@H](C)B3O[C@@H]4C[C@@H]5C[C@@H](C5(C)C)[C@]4(C)O3)[C@@H](C)O)cc2)CC1 [Compound 244] (X13-[Dab]TAK-{boroAla((+)-pinanediol)}) | 64 (≈ 73.8 µM) | 45 (≈ 51.9 µM) | 1100 | 350
7 | CCCCc1ccc(-c2ccc(C(=O)N[C@@H](CN)C(=O)N[C@H](C(=O)N[C@@H](C)C(=O)N[C@@H](CCCCN)C(=O)N[C@@H](C)B(O)O)[C@@H](C)O)cc2)cc1 [Compound 162] ({Biphenylcarbonyl(4'-Bu)}-[Dap]TAK-boroAla) | 0.5 (≈ 0.703 µM) | 0.4 (≈ 0.562 µM) | 200 | 12
8 | C[C@H](NC(=O)[C@H](CCCCN)NC(=O)[C@H](C)NC(=O)[C@H](CCCCN)NC(=O)[C@H](CN)NC(=O)c1ccc(-c2ccc(Cl)cc2)cc1)B1OC2C[C@@H]3C[C@@H](C3(C)C)[C@]2(C)O1 (some centres unmarked) [Compound 168] ({Benzoyl(4-(4-Cl-Ph))}-[Dap]KAK-X1) | 1 (≈ 1.17 µM) | 0.79 (≈ 0.928 µM) | 250 | 5.4
9 | CCCCc1ccc(-c2ccc(CN3CCC(C(=O)N[C@H](C(=O)N[C@@H](C)C(=O)N[C@@H](CCCCN)C(=O)N[C@@H](C)B4OC5C[C@@H]6C[C@@H](C6(C)C)[C@]5(C)O4)[C@@H](C)O)CC3)cc2)cc1 (some centres unmarked) [Compound 273] | 8 (≈ 9.34 µM) | 0.088 (≈ 0.103 µM) | 9.8 | 470
10 | CCCCc1ccc(-c2ccc(C(=O)N[C@@H](CCN)C(=O)N[C@@H](CCN)C(=O)N[C@@H](C)C(=O)N[C@@H](CC)C(=O)N[C@@H](C)B3OC4C[C@@H]5C[C@@H](C5(C)C)[C@]4(C)O3)cc2)cc1 (some centres unmarked) [Compound 182] ({Biphenylcarbonyl(4'-Bu)}-[Dab][Dab]A[Abu]-X1) | 0.71 (≈ 0.87 µM) | 4 (≈ 4.9 µM) | 1100 | 35
11 | CCCCc1ccc(-c2ccc(C(=O)NCCC(=O)N[C@@H](CCCCN)C(=O)N[C@H](C(=O)N[C@@H](C)C(=O)N[C@@H](CC(N)=O)C(=O)N[C@@H](CC)B3OC4C[C@@H]5C[C@@H](C5(C)C)[C@]4(C)O3)[C@@H](C)O)cc2)cc1 (some centres unmarked) [Compound 203] ({Biphenylcarbonyl(4'-Bu)-βAla}-KTAN-X11) | 32 (≈ 33.4 µM) | 1.4 (≈ 1.46 µM) | 21 | 130
